Test results from PubChem BioAssay (NCI).
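Values below derive from 48-hour exposures of cells grown in 96-well plates, with endpoints linearly interpolated between the two concentrations bracketing the appropriate inhibition level. At the GI50, growth is halved. TGI denotes the concentration required for complete inhibition of growth.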

Assays:
Assay in all cases: growth of human tumour cells (NCI), 48 h
[1] = system: HCC-2998 colon
[2] = system: UACC-62 melanoma
[3] = system: 786-0 renal
[4] = system: OVCAR-8 ovarian
[5] = system: NCI-H460 lung
[6] = system: RPMI-8226 leukemia
[7] = system: SK-MEL-28 melanoma
[8] = system: NCI-H226 lung
[9] = system: A498 renal
[10] = system: ACHN renal
[11] = system: PC-3 prostate
[12] = system: RXF 393 renal
[13] = system: SR leukemia
[14] = system: HOP-92 NSCLC
[15] = system: HOP-62 NSCLC
[16] = system: SK-MEL-2 melanoma
[17] = system: UACC-257 melanoma
[18] = system: CAKI-1 renal
[19] = system: MOLT-4 leukemia
[20] = system: K-562 leukemia
[21] = system: SF-539 CNS
[22] = system: SF-268 CNS
[23] = system: HCT-15 colon
[24] = system: OVCAR-4 ovarian
[25] = system: M14 melanoma
[26] = system: MALME-3M melanoma
[27] = system: CCRF-CEM leukemia
[28] = system: SF-295 CNS
[29] = system: SNB-19 CNS
[30] = system: EKVX NSCLC
[31] = system: DU-145 prostate
[32] = system: SNB-75 CNS
[33] = system: T-47D breast
[34] = system: NCI-H23 lung
[35] = system: OVCAR-5 ovarian
[36] = system: SK-MEL-5 melanoma
[37] = system: MDA-MB-435
[38] = system: KM12 colon
[39] = system: SW-620 colon
[40] = system: HT29 colon
[41] = system: HCT-116 colon
[42] = system: SK-OV-3 ovarian
[43] = system: TK-10 renal
[44] = system: NCI/ADR-RES ovarian
[45] = system: U251 CNS
[46] = system: HL-60(TB) leukemia
[47] = system: NCI-H522 lung
[48] = system: OVCAR-3 ovarian
[49] = system: A549 NSCLC
[50] = system: MCF7 breast
[51] = system: MDA-MB-231 breast
[52] = system: LOX IMVI melanoma
[53] = system: IGROV1 ovarian
[54] = system: UO-31 renal
[55] = system: SN12C renal
[56] = system: HS 578T breast
[57] = system: COLO 205 colon

Structure (SMILES): CC/C=C\CCC/C=C1/C(=O)C=C[C@@H]1C/C=C\CCCC(=O)OC
- GI50 [1]: 2.3 µM
- TGI [1]: 4.02 µM
- GI50 [2]: 2.57 µM
- TGI [2]: 6.49 µM
- GI50 [3]: 3.74 µM
- TGI [3]: 11.4 µM
- GI50 [4]: 3.71 µM
- TGI [4]: 12.8 µM
- GI50 [5]: 3.9 µM
- TGI [5]: 14.2 µM
- GI50 [6]: 2.93 µM
- TGI [6]: 8.15 µM
- GI50 [7]: 3.25 µM
- TGI [7]: 10.3 µM
- GI50 [8]: 3.25 µM
- TGI [8]: 9.64 µM
- GI50 [9]: 19.8 µM
- TGI [9]: 34.7 µM
- GI50 [10]: 2.13 µM
- TGI [10]: 4.43 µM
- GI50 [11]: 3.14 µM
- TGI [11]: 8.11 µM
- GI50 [12]: 2.6 µM
- TGI [12]: 6.02 µM
- GI50 [13]: 2.73 µM
- TGI [13]: 9.22 µM
- GI50 [14]: 9.77 µM
- TGI [14]: 23.6 µM
- GI50 [15]: 3.54 µM
- TGI [15]: 11 µM
- GI50 [16]: 2.6 µM
- TGI [16]: 7.21 µM
- GI50 [17]: 7.55 µM
- TGI [17]: 20.5 µM
- GI50 [18]: 4.12 µM
- TGI [18]: 13.5 µM
- GI50 [19]: 2.43 µM
- TGI [19]: 8.39 µM
- GI50 [20]: 2.46 µM
- TGI [20]: 11.6 µM
- GI50 [21]: 3.49 µM
- TGI [21]: 12.9 µM
- GI50 [22]: 4.79 µM
- TGI [22]: 22.1 µM
- GI50 [23]: 2.1 µM
- TGI [23]: 5.13 µM
- GI50 [24]: 4.27 µM
- TGI [24]: 16.4 µM
- GI50 [25]: 3.17 µM
- TGI [25]: 10.1 µM
- GI50 [26]: 4.76 µM
- TGI [26]: 16.6 µM
- GI50 [27]: 2.57 µM
- TGI [27]: 8.32 µM
- GI50 [28]: 3.1 µM
- TGI [28]: 8.75 µM
- GI50 [29]: 4.84 µM
- TGI [29]: 17.7 µM
- GI50 [30]: 4.56 µM
- TGI [30]: 15.6 µM
- GI50 [31]: 8.67 µM
- TGI [31]: 21.1 µM
- GI50 [32]: 13.7 µM
- TGI [32]: 28.5 µM
- GI50 [33]: 5.16 µM
- TGI [33]: 19.2 µM
- GI50 [34]: 3.23 µM
- TGI [34]: 10.8 µM
- GI50 [35]: 5.28 µM
- TGI [35]: 17.6 µM
- GI50 [36]: 1.88 µM
- TGI [36]: 3.5 µM
- GI50 [37]: 2.49 µM
- TGI [37]: 6.39 µM
- GI50 [38]: 2.46 µM
- TGI [38]: 6.39 µM
- GI50 [39]: 4.16 µM
- TGI [39]: 18.7 µM
- GI50 [40]: 2.14 µM
- TGI [40]: 3.87 µM
- GI50 [41]: 2.44 µM
- TGI [41]: 4.95 µM
- GI50 [42]: 14.9 µM
- TGI [42]: 29.4 µM
- GI50 [43]: 7.61 µM
- TGI [43]: 20.1 µM
- GI50 [44]: 3.45 µM
- TGI [44]: 18 µM
- GI50 [45]: 4.22 µM
- TGI [45]: 14.5 µM
- GI50 [46]: 2.79 µM
- TGI [46]: 7.51 µM
- GI50 [47]: 1.91 µM
- TGI [47]: 3.77 µM
- GI50 [48]: 3.39 µM
- TGI [48]: 11.8 µM
- GI50 [49]: 11.1 µM
- TGI [49]: 28.4 µM
- GI50 [50]: 2.69 µM
- TGI [50]: 13.9 µM
- GI50 [51]: 4.23 µM
- TGI [51]: 14.9 µM
- GI50 [52]: 1.59 µM
- TGI [52]: 3.28 µM
- GI50 [53]: 3.3 µM
- TGI [53]: 11.5 µM
- GI50 [54]: 2.04 µM
- TGI [54]: 5.15 µM
- GI50 [55]: 2.92 µM
- TGI [55]: 8.18 µM
- GI50 [56]: 10.6 µM
- TGI [56]: 53.3 µM
- GI50 [57]: 4.1 µM
- TGI [57]: 12.5 µM

Structure (SMILES): C=C(C)[C@@H]1CCC[C@]2(COS(=O)(=O)c3ccc(C)cc3)CC[C@]3(C)[C@@H](CC[C@@H]4[C@@]5(C)CCCNC(C)(C)[C@@H]5CC[C@]43C)[C@@H]12
- GI50 [6]: 1.86 µM
- TGI [6]: 4.54 µM
- GI50 [9]: 1.63 µM
- TGI [9]: 3.14 µM
- GI50 [18]: 1.74 µM
- TGI [18]: 3.15 µM
- GI50 [42]: 1.87 µM
- TGI [42]: 3.3 µM
